26 compounds from patent publication US8552005B2, “(EN) 3-sulfonyl-pyrazolo[1,5-a] pyrimidines / antagonists of serotonin 5-HT6 receptors, methods for the production and the use thereof” (Avincuro Pharmaceuticals, Inc., priority 2008, dated 2013) can be followed below.

Test [1] addresses T1, 5-HT6 receptor (Homo sapiens (Human), UniProt P50406). Description: Antagonistic activity towards 5-HT6 receptors: inhibition of serotonin-induced intracellular cAMP (LANCE cAMP) in HEK 293 cells. Type of test: cell-based. The settings on record: for inhibition at 10 µM: HEK293, read-out: % inhibition of 5-HT6 receptors (I, %), 10 μM solutions, serotonin-induced cAMP; for IC50: serotonin-stimulated intracellular cAMP production, read-out: IC50 in the setting of functional assay. As for the experimental part:
Determination of antagonistic activity of compounds of general formula 1 towards 5-HT6 receptors. Compounds of general formula 1 were tested for their ability to prevent 5-HT6 receptor activation by serotonin. HEK 293 cells (cells of human embryo's kidney) with artificially expressed 5-HT6 receptor, activation of which by serotonin leads to increasing the concentration of intracellular cAMP were used. The content of intracellular cAMP was determined using reagent kit LANCE cAMP (PerkinElmer) according to the method described by the manufacturer of the kit [http://las.perkinelmer.com/content/Manuals/MAN_LANCEcAMP384KitUser.pdf].
Effectiveness of compounds was estimated by their ability to reduce the content of intracellular cAMP induced by serotonin.
In general terms: Time-resolved FRET reads energy transfer from a long-lived donor to a nearby acceptor.

For test [2], the target named is T1, 5-HT6 receptor. Description: Competitive radioligand binding ([3H] Lysergic acid diethylamide) to serotonin 5-HT6 receptors, HeLa cell membranes. To be noted: 1.5 nM [3H] Lysergic acid diethylamide, 120 min at 37° C.; for IC50: read-out: IC50 in the setting of competitive binding; for Ki: read-out: Ki in the setting of competitive binding. On the procedure:
Determination of activity of serotonin 5-HT6 receptor antagonists of the general formula 1 in the setting of competitive binding to serotonin 5-HT6 receptors.
Screening of disclosed compounds for their potential ability to interact with serotonin 5-HT6 receptor was carried out by method of radioligand binding. For this purpose membrane species were prepared from expressing recombinant human 5-HT6 receptor HeLa cells by means of their homogenization in glass homogenizer with subsequent separation of plasmatic membranes from cell nucli, mitochondria's and cell wreckages by differential centrifugation. […] Mol. Pharmacol. 43:320-327, 1993]. […] After incubation the samples were filtered in vacuo on glass-microfiber filters G/F (Millipor, USA), filters were washed three times with cold solution of medium and radioactivity was measured by scintillation counter MicroBeta 340 (PerkinElmer, USA). […] Binding of tested compounds to the receptor was determined by their ability to displace the radioligand and expressed in percent of displacement. The percent of displacement was calculated according to the following equation:
[formula] wherein: TA—was overall radioactivity in the presence of radioligand only, CA—was radioactivity in the presence of radioligand and tested compound and NA—was radioactivity in the presence of radioligand and Serotonin (5 μM).

T1 sequence (P50406 whole entry): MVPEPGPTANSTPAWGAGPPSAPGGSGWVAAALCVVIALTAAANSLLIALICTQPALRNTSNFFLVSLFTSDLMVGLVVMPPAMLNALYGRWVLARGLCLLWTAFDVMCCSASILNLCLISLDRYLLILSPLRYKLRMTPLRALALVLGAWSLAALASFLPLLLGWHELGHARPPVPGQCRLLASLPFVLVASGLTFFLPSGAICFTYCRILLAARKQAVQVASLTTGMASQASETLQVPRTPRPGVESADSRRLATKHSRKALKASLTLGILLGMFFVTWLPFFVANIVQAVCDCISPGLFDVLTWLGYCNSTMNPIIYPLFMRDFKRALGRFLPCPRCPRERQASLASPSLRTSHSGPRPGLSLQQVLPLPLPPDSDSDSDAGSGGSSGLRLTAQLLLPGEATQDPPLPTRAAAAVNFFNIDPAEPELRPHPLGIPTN

Take `CSc1nn2c(-c3ccccc3)cc(C)nc2c1S(=O)(=O)c1ccccc1` [1(1)]: the inhibition – broadly, the relative decrease from the control value, in per cent – at 10 µM at 5-HT6 receptor [1] amounted to 88%.
The same measure, in the same setting: as for `Cc1cc(C)n2nc(C)c(S(=O)(=O)c3ccncc3)c2n1` [1(2)], the figure is 77%.
The same measure, in the same setting: as for `Cc1cc(C)n2nc(C)c(S(=O)(=O)c3cccnc3)c2n1` [1(3)], the figure is 78%; as for `Cc1cc(C)n2nc(C)c(S(=O)(=O)c3cccs3)c2n1` [1(4)], 69%.
Still for that read-out and setting: the same measure for `CSc1nn2c(C)cc(-c3ccccc3)nc2c1S(=O)(=O)c1ccccc1` [1(5)]: 68%.
As for `Cc1cc(C)n2ncc(S(=O)(=O)c3ccccc3)c2n1` [1.1(1), 5,7-dimethyl-3-(phenylsulfonyl)pyrazolo[1,5-a]pyrimidine], at 5-HT6 receptor [1], the inhibition at 10 µM was determined as 78% and the half-maximal inhibitory concentration (IC50) (in general, the concentration that inhibits the measured activity by half) was above 1000 nM. In addition, on 5-HT6 receptor [2], the IC50 turned out to be 510 nM and the Ki – broadly, a measure of affinity in units of concentration, obtained from inhibition or displacement – was determined as 237 nM.
Consider `Cc1cc(C)n2nc(OCCO)c(S(=O)(=O)c3ccccc3)c2n1` [1.1(2)], for which the inhibition at 10 µM on 5-HT6 receptor [1] came out at 82%. Also, on 5-HT6 receptor [2], the IC50 is 477 nM and the Ki stood at 222 nM.
As for `Cc1cc(C)n2nc(OCCO)c(S(=O)(=O)c3ccc(F)cc3)c2n1` [1.1(4)], the inhibition at 10 µM on 5-HT6 receptor [1] came out at 73%.
On to `CSc1nn2c(C)cc(C)nc2c1S(=O)(=O)c1ccccc1` [1.1(5), 5,7-dimethyl-2-methylsulfanyl-3-(phenylsulfonyl)pyrazolo[1,5-a]pyrimidine], for which, on 5-HT6 receptor [1], the inhibition at 10 µM came out at 104% and the 50% inhibitory concentration (IC50) came to 30 nM. For the same compound, at 5-HT6 receptor [2], the IC50 was found to be 4.61 nM and the Ki was determined as 2.14 nM.
Turning to `CCSc1nn2c(C)cc(C)nc2c1S(=O)(=O)c1ccccc1` [1.1(6), 5,7-dimethyl-2-ethylsulfanyl-3-(phenylsulfonyl)pyrazolo[1,5-a]pyrimidine], at 5-HT6 receptor [1], the inhibition at 10 µM was 104% and the IC50 came to 50 nM.
Regarding `CSc1nn2c(C)cc(C)nc2c1S(=O)(=O)c1ccc(F)cc1` [1.1(7), 5,7-dimethyl-2-methylsulfanyl-3-(4-fluorophenylsulfonyl)pyrazolo[1,5-a]pyrimidine], the inhibition at 10 µM on 5-HT6 receptor [1] turned out to be 101%. Besides, the IC50 was 112 nM on 5-HT6 receptor [1] and below 10 nM at 5-HT6 receptor [2].
As to `CCSc1nn2c(C)cc(C)nc2c1S(=O)(=O)c1ccc(F)cc1` [1.1(8), 5,7-dimethyl-2-ethylsulfanyl-3-(4-fluorophenylsulfonyl)pyrazolo[1,5-a]pyrimidine], on 5-HT6 receptor [1], the inhibition at 10 µM amounted to 102%.
For the compound `CSc1nn2c(C)cc(C)nc2c1S(=O)(=O)c1cccc(F)c1` [1.1(9), 5,7-dimethyl-2-methylsulfanyl-3-(3-fluorophenylsulfonyl)pyrazolo[1,5-a]pyrimidine], at 5-HT6 receptor [1], the inhibition at 10 µM was found to be 100% and the IC50 is 25 nM.
As to `CCSc1nn2c(C)cc(C)nc2c1S(=O)(=O)c1cccc(F)c1` [1.1(10), 5,7-dimethyl-2-ethylsulfanyl-3-(3-fluorophenylsulfonyl)pyrazolo[1,5-a]pyrimidine], the inhibition at 10 µM at 5-HT6 receptor [1] came out at 103%.
Turning to `CSc1nn2c(C)cc(C)nc2c1S(=O)(=O)c1cccc(Cl)c1` [1.1(11), 5,7-dimethyl-2-methylsulfanyl-3-(3-chlorophenylsulfonyl)pyrazolo[1,5-a]pyrimidine], at 5-HT6 receptor [1], the inhibition at 10 µM was 101% and the IC50 came to 20 nM.
For the compound `CCSc1nn2c(C)cc(C)nc2c1S(=O)(=O)c1cccc(Cl)c1` [1.1(12), 5,7-dimethyl-2-ethylsulfanyl-3-(3-chlorophenylsulfonyl)pyrazolo[1,5-a]pyrimidine], on 5-HT6 receptor [1], the inhibition at 10 µM was determined as 101%.
In the case of `Cc1cc(C)n2nc(C)c(S(=O)(=O)c3ccccc3)c2n1` [1.1(13)], on 5-HT6 receptor [1], the inhibition at 10 µM is 86%. Further, at 5-HT6 receptor [2], the IC50 came to 147 nM and the Ki was determined as 68.4 nM.
On to `Cc1cc(C)n2nc(C)c(S(=O)(=O)c3cccc(F)c3)c2n1` [1.1(14)], for which the inhibition at 10 µM on 5-HT6 receptor [1] was 88%.
For `CCSc1nn2c(C)cc(C)nc2c1S(=O)(=O)c1ccc(C)cc1` [1.1(15)], on 5-HT6 receptor [1], the inhibition at 10 µM was found to be 99% and the IC50 is 80 nM.
The corresponding values for `CSc1nn2c(C)cc(C)nc2c1S(=O)(=O)c1ccc(Cl)cc1` [1.1(16)] are 94% and 230 nM.
In the case of `COc1ccc(S(=O)(=O)c2c(SC)nn3c(C)cc(C)nc23)cc1` [1.1(17)], at 5-HT6 receptor [1], the inhibition at 10 µM came out at 65.4% and the concentration for half-maximal inhibition (IC50) is 440 nM.
In the same order, the values of `CCSc1nn2c(C)cc(C)nc2c1S(=O)(=O)c1ccc(OC)cc1` [1.1(18)] are 61% and 320 nM.
As for `CSc1nn2c(C)cc(C)nc2c1S(=O)(=O)c1ccc(N(C)C)cc1` [1.1(19)], the inhibition at 10 µM on 5-HT6 receptor [1] worked out at 87%.
On the same count and under the same terms, the same measure for `CSc1nn2c(C)cc(C)nc2c1S(=O)(=O)c1ccc(F)c(Cl)c1` [1.1(20)]: 100%; for `Cc1cc(C)n2nc(C)c(S(=O)(=O)c3ccc(F)cc3)c2n1` [1.1(21)]: 78%; for `Cc1cc(C)n2nc(OCCN(C)C)c(S(=O)(=O)c3ccccc3)c2n1` [1.1(22)]: 66%.
